Results published in PMC4374931 (PLoS ONE, 2015).
Where two headings read alike, the source gives them in different places.

Columns and labels:
[1] = biological target: androgen receptor; set-up: method as in Sedlak et al.; details: published data; ref Sedlak et al.; cited from earlier work
[2] = biological target: T1, human androgen receptor (Homo sapiens, UniProt P10275); experiment: Gene reporter assay in AIZ-AR cells, antagonist mode with DHT (100 nM); type: cell-based
Experimental: (§1) AIZ-AR cells were seeded in 96-well plates at density 5x10^4 cells per well. […] After the treatments, cells were lysed and luciferase activity was measured in 96-well plate format using Tecan Infinite M2000 plate luminometer.
(§2) Dose-response analyses assays were performed in two different experimental layouts. […] Where appropriate, IC50 (half maximal inhibitory concentration) values were calculated.

[3] = biological target: T1, human androgen receptor; experiment: Gene reporter assay in AIZ-AR cells, agonist mode (luciferase); type: cell-based
Experimental: as §1, §2

[4] = in vitro; type: cell-based; details: human
Experimental: AIZ-AR cells were seeded in 96-well plates at density 5x10^4 cells per well. […] Following the incubation, MTT assay was measured spectrophotometrically at 540 nm using Tecan Infinite M2000 plate luminometer.

[5] = biological target: androgen receptor; set-up: method as in Wilkinson et al.; details: published data; ref Wilkinson et al.; cited from earlier work
[6] = system: firefly luciferase; experiment: Inhibition of firefly luciferase in cell lysates; type: biochemical; details: compounds 10 μM added to lysates of cells treated with 100 nM DHT; data not shown
Experimental: AIZ-AR cells were treated with 100 nM DHT for 24 hours. Cell lysates containing firefly luciferase, having a catalytic activity corresponding to model ligand-treated cells, were isolated. Tested compounds (10 μM) were added to cell lysates and luciferase activity was measured.

[7] = system: androgen receptor; details: cited from earlier work

T1 sequence (P10275 whole entry): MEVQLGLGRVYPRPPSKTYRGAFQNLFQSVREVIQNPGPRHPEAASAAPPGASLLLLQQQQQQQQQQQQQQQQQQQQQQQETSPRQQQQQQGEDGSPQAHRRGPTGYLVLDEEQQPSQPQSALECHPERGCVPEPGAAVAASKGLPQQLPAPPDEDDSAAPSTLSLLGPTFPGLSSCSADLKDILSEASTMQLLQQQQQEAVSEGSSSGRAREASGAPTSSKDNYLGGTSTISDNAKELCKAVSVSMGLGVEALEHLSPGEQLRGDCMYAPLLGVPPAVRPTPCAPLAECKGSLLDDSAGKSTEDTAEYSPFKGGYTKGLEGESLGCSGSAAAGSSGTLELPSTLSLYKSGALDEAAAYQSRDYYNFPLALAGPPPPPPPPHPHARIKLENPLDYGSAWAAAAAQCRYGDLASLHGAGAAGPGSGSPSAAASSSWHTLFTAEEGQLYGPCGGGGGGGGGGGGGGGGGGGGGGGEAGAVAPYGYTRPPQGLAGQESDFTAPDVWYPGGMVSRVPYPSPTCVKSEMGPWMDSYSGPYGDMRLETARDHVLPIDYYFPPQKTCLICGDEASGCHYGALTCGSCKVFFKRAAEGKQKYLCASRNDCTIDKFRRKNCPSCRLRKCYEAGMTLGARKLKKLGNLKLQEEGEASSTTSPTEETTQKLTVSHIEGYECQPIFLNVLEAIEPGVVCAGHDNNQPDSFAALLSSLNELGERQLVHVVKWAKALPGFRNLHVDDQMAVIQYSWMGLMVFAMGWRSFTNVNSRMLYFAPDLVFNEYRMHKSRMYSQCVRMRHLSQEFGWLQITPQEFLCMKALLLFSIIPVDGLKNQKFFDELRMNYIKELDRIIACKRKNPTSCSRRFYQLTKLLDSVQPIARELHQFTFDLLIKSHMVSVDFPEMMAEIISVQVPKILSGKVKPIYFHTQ

| Structure (SMILES) | Literature Log EC50 [1] | agonist-induced luciferase activity ([2]; antagonist mode, 10^-5 M, probably due to luciferase inhibition) | effect on agonist-induced luciferase activity in antagonist mode ([2]; with DHT (100 nM) or testosterone (10 nM) as agonist, 24 h) | Log EC50 ([3]; Clone 8, 24 h) | Log EC50 ([3]; Clone 14, 24 h) | viability at 24 h, 0.1 nM [4] [%] | viability at 24 h, 1 nM [4] [%] | viability at 24 h, 10 nM [4] [%] | viability at 24 h, 100 nM [4] [%] | viability at 24 h, 1 μM [4] [%] | viability at 24 h, 10 μM [4] [%] | Literature Log EC50 [5] | influence on firefly luciferase catalytic activity [6] | Response of AR-LUX cell line (induction) [7] |
| --- | --- | --- | --- | --- | --- | --- | --- | --- | --- | --- | --- | --- | --- | --- |
| O=c1c(-c2ccc(O)cc2)coc2cc(O)cc(O)c12 [Genistein, genistein] | > -5.00 | massive drop | strongly augmented agonist-induced luciferase activity | -6.62 ± 0.42 | -6.79 ± 0.23 | 100 | 96.5 ± 2.4 | 96.7 ± 3.3 | 103 ± 7.5 | 103 ± 7.5 | 120 ± 6.4 | > -5.00 | significantly influenced luciferase activity |  |
| C[C@]1(O)CC[C@H]2[C@@H]3CCC4=CC(=O)CCC4=C3C=C[C@@]21C [R1881] |  |  |  |  |  |  |  |  |  |  |  |  |  | maximally five-fold induction |
